According to ChEMBL document CHEMBL4311993, “Structure-activity relationship study of NPP1 inhibitors based on uracil-N1-(methoxy)ethyl-β-phosphate scaffold” (Eur J Med Chem, 2019):
The source made the active and inactive calls. The calls are words filed in the database; no cut-off is given here.

Legend:
[1] = biological target: P2Y purinoceptor 2 (Homo sapiens) (UniProt P41231); experiment: Agonist activity at human P2Y2 receptor expressed in AD293 cells assessed as inositol-1-phosphate accumulation at 100 uM; assay type: functional, cell-based
P2Y purinoceptor 2 (Homo sapiens), sequence (P41231 whole entry): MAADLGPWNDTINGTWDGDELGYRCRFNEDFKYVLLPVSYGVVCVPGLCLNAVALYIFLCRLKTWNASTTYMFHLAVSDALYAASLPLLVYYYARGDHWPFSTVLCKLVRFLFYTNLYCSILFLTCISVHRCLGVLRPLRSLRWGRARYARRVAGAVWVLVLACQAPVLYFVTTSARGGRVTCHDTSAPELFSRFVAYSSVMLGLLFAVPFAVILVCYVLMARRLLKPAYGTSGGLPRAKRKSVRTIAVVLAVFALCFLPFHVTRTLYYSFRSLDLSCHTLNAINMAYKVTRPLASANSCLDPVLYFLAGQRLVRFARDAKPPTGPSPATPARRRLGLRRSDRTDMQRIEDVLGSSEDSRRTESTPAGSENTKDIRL

[2] = biological target: P2Y purinoceptor 2 (Homo sapiens) (UniProt P41231); experiment: Agonist activity at human P2Y2 receptor expressed in AD293 cells assessed as induction of IP1 accumulation at 0.1 to 1 uM; assay type: functional, cell-based
[3] = biological target: P2Y purinoceptor 2 (Homo sapiens) (UniProt P41231); experiment: Antagonist activity at human P2Y2 receptor expressed in AD293 cells assessed as inhibition of UTP-induced inositol-1-phosphate accumulation at 100 uM; assay type: functional, cell-based
[4] = biological target: T1, Ectonucleotide pyrophosphatase/phosphodiesterase family member 3 (Homo sapiens) (UniProt O14638); experiment: Inhibition of human NPP3 expressed in COS7 cell membranes at 100 uM using pNP-TMP as substrate preincubated for 3 mins followed by substrate addition and measured after 15 mins
T1 sequence (whole entry): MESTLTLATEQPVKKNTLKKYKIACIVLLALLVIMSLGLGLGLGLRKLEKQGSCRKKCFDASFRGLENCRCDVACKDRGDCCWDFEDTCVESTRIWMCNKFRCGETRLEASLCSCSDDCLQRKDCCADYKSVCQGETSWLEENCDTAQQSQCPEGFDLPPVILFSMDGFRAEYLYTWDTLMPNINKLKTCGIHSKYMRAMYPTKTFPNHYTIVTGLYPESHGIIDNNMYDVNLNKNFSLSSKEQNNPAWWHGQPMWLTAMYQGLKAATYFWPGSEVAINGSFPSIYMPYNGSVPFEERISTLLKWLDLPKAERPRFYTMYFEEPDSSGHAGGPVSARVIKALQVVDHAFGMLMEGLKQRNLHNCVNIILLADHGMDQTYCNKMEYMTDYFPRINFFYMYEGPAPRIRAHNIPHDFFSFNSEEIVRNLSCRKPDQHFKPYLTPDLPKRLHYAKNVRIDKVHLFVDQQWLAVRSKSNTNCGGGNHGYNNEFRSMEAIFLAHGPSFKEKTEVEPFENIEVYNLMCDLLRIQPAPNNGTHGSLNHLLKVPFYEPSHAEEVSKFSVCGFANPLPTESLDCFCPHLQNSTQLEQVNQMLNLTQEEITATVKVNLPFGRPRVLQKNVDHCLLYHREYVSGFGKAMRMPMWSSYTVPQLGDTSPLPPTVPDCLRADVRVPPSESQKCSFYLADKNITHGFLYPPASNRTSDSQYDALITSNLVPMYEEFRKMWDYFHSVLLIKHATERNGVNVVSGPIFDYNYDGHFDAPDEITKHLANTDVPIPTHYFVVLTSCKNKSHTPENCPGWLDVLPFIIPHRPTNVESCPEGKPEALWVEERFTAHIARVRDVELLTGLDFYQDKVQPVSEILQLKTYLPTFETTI

[5] = biological target: T2, Ectonucleotide pyrophosphatase/phosphodiesterase family member 1 (Homo sapiens) (UniProt P22413); experiment: Inhibition of human NPP1 expressed in COS7 cell membranes at 100 uM using pNP-TMP as substrate preincubated for 3 mins followed by substrate addition and measured after 15 mins relative to control
T2 sequence (whole entry): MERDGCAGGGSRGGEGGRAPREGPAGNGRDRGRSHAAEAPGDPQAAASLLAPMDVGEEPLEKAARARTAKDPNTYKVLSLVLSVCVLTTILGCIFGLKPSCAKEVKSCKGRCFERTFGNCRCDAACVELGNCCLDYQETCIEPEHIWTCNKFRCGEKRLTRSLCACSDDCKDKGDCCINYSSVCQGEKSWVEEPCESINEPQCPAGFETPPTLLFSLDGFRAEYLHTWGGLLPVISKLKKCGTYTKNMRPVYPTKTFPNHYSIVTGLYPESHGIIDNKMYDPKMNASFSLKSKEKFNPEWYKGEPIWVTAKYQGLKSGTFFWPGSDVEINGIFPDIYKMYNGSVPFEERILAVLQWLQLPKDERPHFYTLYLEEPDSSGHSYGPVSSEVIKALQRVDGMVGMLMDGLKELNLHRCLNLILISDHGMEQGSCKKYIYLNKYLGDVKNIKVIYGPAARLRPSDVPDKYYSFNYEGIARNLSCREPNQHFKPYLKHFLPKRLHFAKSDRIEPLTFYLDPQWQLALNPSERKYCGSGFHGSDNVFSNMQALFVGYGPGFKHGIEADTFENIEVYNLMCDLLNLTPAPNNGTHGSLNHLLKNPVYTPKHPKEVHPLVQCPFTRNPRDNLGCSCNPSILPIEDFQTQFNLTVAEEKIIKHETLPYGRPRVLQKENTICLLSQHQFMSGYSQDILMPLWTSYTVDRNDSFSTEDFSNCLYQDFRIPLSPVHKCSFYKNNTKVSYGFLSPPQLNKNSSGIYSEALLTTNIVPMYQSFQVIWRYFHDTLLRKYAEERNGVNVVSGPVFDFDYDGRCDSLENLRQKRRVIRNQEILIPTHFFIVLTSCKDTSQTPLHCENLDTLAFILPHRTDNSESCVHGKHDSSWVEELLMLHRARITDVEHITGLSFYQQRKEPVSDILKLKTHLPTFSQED

[6] = biological target: T2, Ectonucleotide pyrophosphatase/phosphodiesterase family member 1 (Homo sapiens); experiment: Inhibition of human NPP1 expressed in COS7 cell membranes at 100 uM using pNP-TMP as substrate preincubated for 3 mins followed by substrate addition and measured after 15 mins
[7] = biological target: T1, Ectonucleotide pyrophosphatase/phosphodiesterase family member 3 (Homo sapiens); experiment: Inhibition of human NPP3 expressed in COS7 cell membranes at 100 uM using pNP-TMP as substrate preincubated for 3 mins followed by substrate addition and measured after 15 mins relative to control
[8] = Cytotoxicity against human primary chondrocytes at 100 uM after 24 hrs by XTT assay
[9] = biological target: T3, Ectonucleotide pyrophosphatase/phosphodiesterase family member 1 (Homo sapiens, UniProt P22413); experiment: Inhibition of human NPP1 expressed in COS7 cell membranes using pNP-TMP as substrate preincubated for 3 mins followed by substrate addition and measured after 15 mins by Dixon plot analysis
T3 sequence (P22413 whole entry): T2 sequence (whole entry)

[10] = organism: Homo sapiens; experiment: Inhibition of alkaline phosphatase in human primary chondrocyte at 100 uM using p-nitrophenyl phosphate as substrate after 30 mins by […] relative to control
[11] = biological target: P2Y purinoceptor 6 (Homo sapiens) (UniProt Q15077); experiment: Agonist activity at human P2Y6 receptor expressed in AD293 cells assessed as inositol-1-phosphate accumulation at 100 uM; assay type: functional, cell-based
P2Y purinoceptor 6 (Homo sapiens), sequence (Q15077 whole entry): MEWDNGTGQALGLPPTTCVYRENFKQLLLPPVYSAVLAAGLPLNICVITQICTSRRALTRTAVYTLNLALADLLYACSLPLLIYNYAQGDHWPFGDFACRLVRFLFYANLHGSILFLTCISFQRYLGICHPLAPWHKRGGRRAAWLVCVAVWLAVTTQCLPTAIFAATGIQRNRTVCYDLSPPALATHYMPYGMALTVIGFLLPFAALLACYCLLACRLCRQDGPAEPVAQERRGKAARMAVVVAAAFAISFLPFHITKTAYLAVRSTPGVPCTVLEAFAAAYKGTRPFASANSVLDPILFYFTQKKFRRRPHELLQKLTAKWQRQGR

[12] = biological target: T2, Ectonucleotide pyrophosphatase/phosphodiesterase family member 1 (Homo sapiens); experiment: Inhibition of NPP-1 in human articular chondrocytes at 100 uM using p-Nph-5'-TMP as substrate after 3 hrs by […] relative to control; assay type: cell-based
[13] = biological target: P2Y purinoceptor 2 (Homo sapiens) (UniProt P41231); experiment: Partial agonist activity at human P2Y2 receptor expressed in AD293 cells assessed as inositol-1-phosphate accumulation at 100 uM; assay type: functional, cell-based

Row | Activity [2] | inhibition [4] | Activity [13] | Structure (SMILES) | Activity [1] | inhibition [3] | inhibition [5] | inhibition [6] | inhibition [7] | Activity [8] | Ki [9] | inhibition [10] | Activity [11] | inhibition [12]
1 | inactive | Active |  | O=c1ccn(COCCOP(=O)(O)C(Cl)(Cl)P(=O)(O)O)c(=O)[nH]1 | inactive | inactive | 51% |  |  |  |  |  |  | 
2 |  |  |  | O=c1ccn(COCCOP(=S)(S)OP(=O)(O)CP(=O)(O)O)c(=O)[nH]1 (stereo unspecified) | inactive | inactive | 96% |  | 24% | Non-Toxic | 940 nM | < 10% | Active | 
3 |  |  |  | O=c1ccn(COCCOP(=S)(S)OP(=O)(O)C(Cl)(Cl)P(=O)(O)O)c(=O)[nH]1 (stereo unspecified) | inactive | inactive | 96% |  | 21% | Non-Toxic | 730 nM | < 10% | Active | 96%
4 |  | inactive |  | O=c1ccn(COCCOP(=O)(O)O)c(=O)[nH]1 | inactive | inactive |  | inactive |  |  |  |  |  | 
5 | inactive | Active | Active | O=c1ccn(COCCOP(=O)(O)CP(=O)(O)O)c(=O)[nH]1 |  |  | 54% |  |  |  |  |  | Active | 

Row | Structure (SMILES) | Activity [2] | inhibition [4] | Activity [13] | Activity [1] | inhibition [3] | inhibition [5] | inhibition [6] | inhibition [7] | Activity [8] | Ki [9] | inhibition [10] | Activity [11] | inhibition [12]
6 | O=c1ccn(COCCO[PH](=O)O)c(=O)[nH]1 | inactive | inactive |  | inactive | inactive |  | inactive |  |  |  |  |  | 
